In PubChem BioAssay AID493130 (Broad Institute, 2011):
Results filed as inconclusive are left out. The source made the active and inactive calls.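 How the source made its calls: active means signal-lowering compounds whose fitted half-maximal concentration is at most ten times their highest tested dose; inconclusive means flat fit between -30 and -70%, or poor fit; inactive means flat within 30%, signal rising, or potency beyond limit.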

Target: POS-1 (Caenorhabditis elegans) binding to mex-3 RNA
Assay: inhibitors of POS-1/mex-3 RNA binding, dose response, counter-screen for MEX-5 RNA-binding inhibitor project, biochemical, fluorescence polarization, cherry-picked samples, set 2 (AID 493130);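 further: POS-1 as maltose binding protein fusion made in E. coli with FITC RNA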
Conditions: POS-1/mex-3 RNA fluorescence polarization, 1 h

| Structure (SMILES) | AC50 |
| --- | --- |
| CCOc1cc(/C=C2\CCCc3c2nc2ccccc2c3C(=O)O)ccc1OC | 0.948 µM |
| Cc1cccc(N2C(=O)NC(=O)/C(=C/c3cc4c(cc3[N+](=O)[O-])OCO4)C2=O)c1 | 2.94 µM |
| Cc1cc(O)c(-c2cc(O)c(C)cc2O)cc1O | 10.1 µM |
| Cc1cc(-c2csc(N)n2)c(C)n1C | 8.77 µM |
| CC1CCN(Cc2c(O)ccc3c2O/C(=C\c2ccco2)C3=O)CC1 | 3.53 µM |
| O=[N+]([O-])c1ccc(NCc2ccccc2)c2nonc12 | 0.434 µM |
| COc1ccc(Cn2c(O)c(/C=N/NC(=O)c3ccccc3O)c(=O)[nH]c2=O)cc1 | 6.22 µM |
| CN1CC=C2C(C#N)=C(N)C(C#N)(C#N)C(Cc3ccccc3)C2C1 (centres undefined) | 6.58 µM |
| COc1ccc(-c2onc3ccc(C(C)=O)cc23)cc1 | < 0.08 µM |
| Cc1cc[n+](-c2[nH]c(=O)sc2/C=N/NC([S-])=Nc2ccccc2)cc1 | 2.39 µM |
| COCC1CCN(Cc2c(C(=O)N3CCc4ccccc4C3)nc3ccc(Cl)cn23)C1 (centres undefined) | > 10 µM (inactive) |
| CN1Cc2sc(N)c(C#N)c2CC1(C)C | 9.75 µM |
| C#CCN1C(=O)S/C(=C\c2cc3c(cc2OC)OCO3)C1=O | 8.97 µM |
| CCOc1ccc(N=Nc2c(=O)[nH]n3c(=O)cc(C)[nH]c23)cc1 | > 10 µM (inactive) |
| Cc1cc(C)c2c(c1)NC(C(=O)O)C1CC=CC21 (centres undefined) | 6.96 µM |

Same assay, conditions: POS-1/mex-3 RNA fluorescence polarization, 1 h; at 10 µM (top of the series)

| Structure (SMILES) | activity change, negative = inhibition |
| --- | --- |
| NC(=O)c1cccc2cc3ccccc3cc12 | inactive |
| COc1ccc(C[C@@H]2c3cc(O)c(OC)cc3CCN2C)cc1O | inactive |
| O=C(Cc1cccs1)Nc1nnc(SCc2ccc(Br)cc2)s1 | inactive |
| NS(=O)(=O)c1ccc(N=Nc2ccc(=O)[nH]c2O)cc1 | inactive |
| NC(=O)C(=O)N/N=C1\CCc2ccccc21 | inactive |
| Cc1nc2c3ccccc3nc(NNC(=O)CCC(=O)N3CCC(C)CC3)n2n1 | inactive |
| Nc1ccc2nc[nH]c2c1 | inactive |
| Cc1ccc2c(c1Cl)NC(C(=O)O)C1CC(Sc3ccccc3[N+](=O)[O-])C(Cl)C21 (centres undefined) | inactive |
| O=C(CN1C(=O)/C(=C/c2cccc(Br)c2)SC1=S)NC1=NCCS1 | inactive |
| Cc1cc(C)c[n+](-c2[nH]c(=O)sc2/C=N/N=C(\N)[S-])c1 | inactive |
| CCOc1cc(/C=N/n2c(C)nc3ccccc3c2=O)ccc1O | inactive |
| COc1ccc(NC(=O)c2coc(C)c2)cc1 | inactive |
| NC(=O)C(=O)N/N=C/c1c2ccccc2cc2ccccc12 | inactive |
| C#CCOCCOCCOCCNc1nc(N2CCN(C(=O)[C@H](CCCCN)n3cc(C(N)CO)nn3)CC2)nc(N2CCN(C(=O)[C@H](CCC(=O)O)n3cc(C(N)CC(C)C)nn3)CC2)n1 (some centres undefined) | inactive |
| O=C1NC(=O)/C(=C/c2ccc(N3CCOCC3)o2)N1 | inactive |
| NC1=NC(=O)/C(=C\c2ccc(O)c([N+](=O)[O-])c2)S1 | inactive |
| CN(CC(=O)Nc1cccc(F)c1)C(=O)/C=C/c1cn(Cc2ccccc2)nc1-c1cccnc1 | inactive |
| Cc1ccc(C(=O)N/C(=C\c2ccc(-c3cccc([N+](=O)[O-])c3)o2)C(=O)NCCCN(C)C)cc1 | inactive |
| COc1ccc(C(=O)C/C(=C\C(=O)c2ccc(C)cc2)c2ccccc2)cc1 | inactive |
| COc1ccc(CCn2c(=N)c(C(=O)NCC3CCCO3)cc3c(=O)n4cccc(C)c4nc32)cc1 (centres undefined) | inactive |
| O=C(O)c1[nH]c2ccccc2c1C(c1cc(Br)ccc1O)c1c(C(=O)O)[nH]c2ccccc12 | inactive |
| Cc1nnc(N2C(=O)C(O)=C(C(=O)c3ccco3)C2c2ccc(C(C)C)cc2)s1 (centres undefined) | inactive |
| N=C1C(c2nc3ccccc3[nH]2)=C(O)CN1c1ccccc1 | inactive |
| O=C(O)c1ccc2cccnc2n1 | inactive |
| O=c1oc2cc([N+](=O)[O-])ccc2nc1/C=C(\O)c1cccc(Br)c1 | inactive |
| CC(C)(C)N(CC#CCC(O)(c1ccccc1)c1ccccc1)CCO | inactive |
| COc1cccc(NC2=C(NCCO)C(=O)c3ccccc3C2=O)c1 | inactive |

| Structure (SMILES) | activity change, negative = inhibition |
| --- | --- |
| CCOC(=O)C1C(=O)C=C(/C=C/c2ccc(N(C)C)cc2)CC1c1ccccc1 (centres undefined) | inactive |
| Nc1ccc(S(=O)(=O)NNC(=O)C(=O)NNc2ccccn2)cc1 | inactive |
| COc1cccc(-c2cn3nc4c(nc3n2)CCCC4)c1 | inactive |
| COC(=O)COc1ccc(C2Nc3c(Cl)ccc(C(=O)O)c3C3C=CCC32)cc1 (centres undefined) | inactive |
| Cc1cccn2c(=O)c3cc(C(=O)NC(C)C)c(=N)n(Cc4ccncc4)c3nc12 | inactive |
| O=C(CCc1ccccc1)N/N=C\c1cc2c(cc1Br)OCO2 | inactive |
| CN1CCc2c(sc(NC(=O)C3CCCN3S(=O)(=O)c3ccc(Cl)s3)c2C(N)=O)C1 (centres undefined) | inactive |
| Nc1ccc(Oc2ncccn2)cc1 | inactive |
| Cc1cccnc1Nc1nc(-c2ccc(O)cc2O)cs1 | inactive |
| CN1CCc2c(sc(NC(=O)c3ccc(S(=O)(=O)N4CCCC4)cc3)c2C(N)=O)C1 | inactive |
| CSCC(C)N1CCC(n2nccc2NC(=O)CCc2ccccc2)CC1 (centres undefined) | inactive |
| O=S1(=O)c2ccccc2N=NN1Cc1ccc(Cl)c(Cl)c1 | inactive |
| N=C1C(c2nc3ccccc3[nH]2)=C(O)CN1c1ccc(F)cc1 | inactive |
| Cc1c(N=Cc2cc3c(cc2[N+](=O)[O-])OCO3)cccc1[N+](=O)[O-] | inactive |
| Cn1cc(CNC(=O)C2c3ccccc3Oc3ccccc32)cn1 | inactive |
| COc1cccc(NC(=S)NNC(=O)C(C)n2nc(C)c([N+](=O)[O-])c2C)c1 (centres undefined) | inactive |
| O=C(O)c1cccc(NC(=S)N/N=C/c2c[nH]c3ccccc23)c1 | inactive |
| O=C(O)c1cccc(-n2cccc2/C=C/[N+](=O)[O-])c1 | inactive |
| O=C(O)CCN1C(=O)/C(=C\c2ccc(OCc3ccccc3)c(OCc3ccccc3)c2)SC1=S | inactive |
| COc1ccc(OC)c(Nc2nc(-c3ccc(O)c(O)c3)cs2)c1 | inactive |
| Cc1nc2c3ccccc3nc(NNC(=O)CCC(=O)NC(C)C)n2n1 | inactive |
| Cc1nc2ccc(NC(=O)NC(=O)c3c(Cl)cccc3Cl)cc2o1 | inactive |
| CN(C)c1ccc(N=Cc2nc(-c3ccccc3)oc2OC(=O)c2cccc(Br)c2)cc1 | inactive |
| Cc1c(O)ccc(-c2[nH]ncc2-c2nc3ccccc3s2)c1O | inactive |
| COC(=O)c1ccc(N2NC(=O)/C(=C/c3ccc(-c4ccc(Cl)c(C(=O)O)c4)o3)C2=O)cc1 | inactive |
| Nc1nc(-c2ccc(Cl)cc2)nnc1-c1ccc(Br)cc1 | inactive |
| O=C1CS/C(=N\NC(=O)c2ccccc2)N1 | inactive |

| Structure (SMILES) | activity change, negative = inhibition |
| --- | --- |
| COc1ccc2c(c1)NC(c1ccc(N(C)C)cc1)c1cccn1-2 (centres undefined) | inactive |
| COc1ccccc1N=Nc1c(C)[nH][nH]c1=O | inactive |
| CCN1C/C(=C/c2ccc(OC)c(O)c2)C(=O)/C(=C/c2ccc(OC)c(O)c2)C1 | inactive |
| COC(=O)c1ccccc1-c1ccc(C(c2c(C)[nH][nH]c2=O)c2c(C)[nH][nH]c2=O)o1 | inactive |
| O=C(NNS(=O)(=O)c1ccc(F)cc1)c1cnccn1 | inactive |
| COC(=O)c1cc(NC(=O)c2ccccc2)c(=O)oc1C | inactive |
| COc1ccc(N(CCC#N)C(=O)/C(C#N)=C\c2cccs2)cc1 | inactive |
| COC(=O)C1CSc2[nH]c(=O)sc2C1c1ccc(O)c(OC)c1 (centres undefined) | inactive |
| FC(F)(F)c1nc2cc3nc4ccccc4[nH]c3cc2n1 | inactive |
| CN1CCN(c2nc(-c3ccccc3)nc(-c3ccccc3)c2C#N)CC1 | inactive |
| Cc1c(C=O)c(Cl)n(C)c(=O)c1C#N | inactive |
| CCOc1c(O)ccc(/C=C2\SC(=S)NC2=O)c1[N+](=O)[O-] | inactive |
| CCOC(=O)c1c(NS(=O)(=O)c2ccccc2)n(CCCOC)c2nc3ccccc3nc12 | inactive |
| Cc1ccc(N/N=C(\C#N)C(=O)c2ccsc2)cc1 | inactive |
| CCN1C(=O)c2cccc3c(NC(=O)C4CCCCC4)ccc1c23 | inactive |
| Cc1cc(C)c([C@@H]2C[C@H]3CN(C4CCCC4)C(=O)[C@]34CCCN24)c(-n2cccn2)c1 | inactive |
| CNC(=O)c1cc2ccc(OC)cc2oc1=O | inactive |
| Oc1ccc(/C=N/Nc2ccc(Cl)nn2)c(O)c1O | inactive |
| COc1cccc(/C=N/NC(=O)N/N=C/c2cccc(OC)c2O)c1O | inactive |
| CCc1ccc(S(=O)(=O)Nc2ccc(O)c3c(=O)cc(-c4ccccc4Cl)oc23)cc1 | inactive |
| C=CCc1cccc2cc(C(=O)NNC(=O)CC#N)c(=O)oc12 | inactive |
| COC1=C(Nc2ccc(O)cc2)C(=O)c2ccccc2C1=O | inactive |
| CCOC(=O)NC(=O)COC(=O)c1ccc(Sc2ncn[nH]2)c([N+](=O)[O-])c1 | inactive |
| O=c1c2ccccc2c(C=Nc2ccc(O)cc2)c(O)n1-c1nccs1 | inactive |
| CC[n+]1c(/C=C/C=C/c2ccc(N(C)C)cc2)sc2ccccc21 | inactive |
